The source of these data is patent US11130762B2, “Azaaryl derivative, preparation method therefor, and application thereof for use in pharmacy” (Abbisko Therapeutics Co., Ltd., priority 2017, dated 2021).

Assay [1] concerns M-NFS-60 mouse myeloid leukemia lymphocytes. The experiment in a line: CSF-1R-related cell proliferation experiment (Cell Titer Glo), M-NFS-60 cells with M-CSF. It counts as cell-based. The settings on record: Lymphocyte, 72 h, 3 days, CTG, * = average of multiple tests. The protocol:
C. CSF-1R-Related Cell Proliferation Experiment
Functional effects of compounds on cell proliferation were evaluated by using Cell Titer Glo (CTG) study in the present invention. M-NFS-60 mouse myeloid leukemia lymphocytes (cat. No. CCBJ078) from National Institutes For Food and Drug Control were cultured in the incubator under conditions of RPMI 1640 (Gibco, cat. No. 11875-119), 10% fetal bovine serum (Gibco, 10099-141), human 10 ng/mL M-CSF macrophage colony-stimulating factor (R&D, cat. No. MVN0915101), 37° C., and 5% CO2. Since ATP is an index for viable cell metabolism, CTG (Promega, #G7573) reagent is a homogeneous detection method for detecting the number of viable cells in the culture by quantifying ATP. Therefore, compound-mediated inhibition for cell proliferation/survival was evaluated by quantifying ATP content in cells, and the specific experimental process was as follows:
1. The cells were plated into a tissue-culture-medium-treated 96-well plate (Costar #3904) with 5,000 cells/well/80 μL fresh culture medium;
2. 24 hours later, 10 μL culture medium containing testing compound with 10-fold of final concentration was added to each well;
3. 10 μL of culture medium containing M-CSF with 10-fold of the final concentration was then added to each well;
4. dosage effect was evaluated by testing the 3-fold serial dilutions of the compound;
(§1) 5. after the cells were incubated for 3 days at 37° C. and 5% CO2, the inhibition on cell survival was quantified after 50 μL of CTG was added and the luminescence assay was performed;
(§2) 6. the compound concentration leading to half maximal inhibitory (IC50) and the compound concentration leading to absolute half maximal inhibitory (Absolute IC50) were measured by a plate reader (M1000, Tecan) and a four-parameter curve fit in Graphpad Prism 7.
Background: ATP-based viability assays read luminescence as a measure of living cells.

Assay [2] has as its system M-07e human cytomegalic leukemia cells. The experiment in a line: Cell proliferation (Cell Titer Glo), M-07e cells with SCF (KIT). The settings on record: 72 h, 3 days, CTG, * = average of multiple tests, read-out: Cytological experiment KIT IC50. In kind it is cell-based. The protocol:
D. CSF-1R-Related Cell Proliferation Experiment
Functional effects of compounds on the proliferation of several cell lines were evaluated by Cell Titer Glo (CTG) studies in the present invention, and effects of the compounds on the proliferation of different cells were evaluated to determine the selectivity degree of the compounds. In the experiment, M-07e human cytomegalic leukemia cells (cat. No. CBP60791) from Nanjing Kebai Biotechnology Co., Ltd. were cultured in an incubator under conditions of RPMI1640 (Gibco, cat. No. 11875-119), 20% fetal bovine serum (Gibco, 10099-141), human 10 ng/mL GM-CSF granulocyte macrophage colony-stimulating factors (R&D, cat. No. 215-GM-010), 37° C., and 5% CO2; and Kasumi-1 human acute myeloblastic leukemia cells (cat. No. CBP60524) were cultured in an incubator under conditions of RPMI1640 (Gibco, cat. No. 11875-119), 20% fetal bovine serum (Gibco, 10099-141), 37° C., and 5% CO2: NCI-H1703 human non-small cell lung squamous carcinoma cells (cat. No. CBP60115) were cultured in an incubator under conditions of RPMI1640 (Gibco, cat. No. 11875-119), 10% fetal bovine serum (Gibco, 10099-141), 37° C., and 5% CO2; MV-4-11 human acute monocytic leukemia cells (cat. No. CBP60522) were cultured in an incubator under conditions of IMDM (Invitrogen, cat. No. 12440053), 20% fetal bovine serum (Gibco, 10099-141), 37° C., and 5% CO2. Since ATP is an index for viable cell metabolism, CTG (Promega, #G7573) reagent is a homogeneous detection method for detecting the number of viable cells in the culture by quantifying ATP. Therefore, compound-mediated inhibition for cell proliferation/survival was evaluated by quantifying ATP content in cells, and the specific experimental process was as follows.
I) M-07e Human Cytomegalic Leukemia Cell:
1. The cells were plated into a tissue-culture-medium-treated 96-well plate (Costar #3904) with 3500 cells/well/80 μL fresh culture medium, and cultured for 24 hrs;
2. the next day, 10 μL of culture medium containing testing compound with 10-fold of final concentration was added to each well:
3. 10 μL of culture medium containing SCF recombinant human stem cell factor (R&D, cat. No. 7466-SC-010) with 10-fold of the final concentration was then added to each well;
4. the dosage effect was evaluated by testing 4-fold serial dilutions of the compound, which started from 18 μM;
as §1, §2

A further assay deals with CSF-1R (Homo sapiens, UniProt P07333). The experiment in a line: CSF-1R in vitro biochemical kinase study (ADP-Glo assay). The settings on record: 500 μM ATP, * = average of multiple tests, read-out: Enzymatic experiment CSF1R IC50. As for the experimental part: A. CSF-1R In Vitro Biochemical Kinase Study
In the present invention, the inhibitory activity of compounds against the CSF-1R activity was determined by using CSF-1R ADP-Glo assay. The compound-mediated inhibition effect was achieved by inhibiting the production of ADP from consumption of ATP, and the activities of compounds were evaluated by using the ADP-Glo kit (Promega, cat. No. V9101). The specific experimental process was as follows:
1. The kinase reaction performed in the present invention was carried out in a 384-well plate (Perkinelmer, cat. No. 6007290), 3.95 nM of CSF-1R, 500 μM of ATP, and 0.2 mg/mL of polypeptide (Poly (Glu4, Try1), Sigma, cat. No. P0275) were respectively weighed and added to each well:
2. following reagents were then added to each well to reach the final reaction system: 40 mM Tris, pH 7.5, 20 mM MgCl2, 0.01% Triton X-100, 0.1 mg/mL BSA, 2.5 mM DTT, and 0.1% DMSO;
3. the reaction was conducted at 30° C. for 60 min;
4. then an equal volume of stop solution (ADP-Glo) was added to the kinase reaction system;
5. the mixed solution was incubated at 25° C. for 60 min, and the kinase reaction was then terminated;
6. a two-fold volume of detection reagent was then added to each well;
7. the mixed solution was incubated at 25° C. for 30 min;
8. the compound IC50 value was measured by using a plate reader (Tecan, M1000) and a four-parameter curve was generated in Graphpad Prism.
In general terms: ADP-Glo turns the ADP formed in a reaction into a luminescent signal.

Where [3] appears, read: read-out: Cytological experiment CSF1R IC50.
Where [4] appears, read: absolute half maximal inhibition, read-out: Cytological experiment CSF-1R Absolute IC50.

The IC50 is the concentration that gives 50% inhibition.

Like-named read-outs stand apart in the source and are kept apart here.

CSF-1R, sequence (P07333 20-972): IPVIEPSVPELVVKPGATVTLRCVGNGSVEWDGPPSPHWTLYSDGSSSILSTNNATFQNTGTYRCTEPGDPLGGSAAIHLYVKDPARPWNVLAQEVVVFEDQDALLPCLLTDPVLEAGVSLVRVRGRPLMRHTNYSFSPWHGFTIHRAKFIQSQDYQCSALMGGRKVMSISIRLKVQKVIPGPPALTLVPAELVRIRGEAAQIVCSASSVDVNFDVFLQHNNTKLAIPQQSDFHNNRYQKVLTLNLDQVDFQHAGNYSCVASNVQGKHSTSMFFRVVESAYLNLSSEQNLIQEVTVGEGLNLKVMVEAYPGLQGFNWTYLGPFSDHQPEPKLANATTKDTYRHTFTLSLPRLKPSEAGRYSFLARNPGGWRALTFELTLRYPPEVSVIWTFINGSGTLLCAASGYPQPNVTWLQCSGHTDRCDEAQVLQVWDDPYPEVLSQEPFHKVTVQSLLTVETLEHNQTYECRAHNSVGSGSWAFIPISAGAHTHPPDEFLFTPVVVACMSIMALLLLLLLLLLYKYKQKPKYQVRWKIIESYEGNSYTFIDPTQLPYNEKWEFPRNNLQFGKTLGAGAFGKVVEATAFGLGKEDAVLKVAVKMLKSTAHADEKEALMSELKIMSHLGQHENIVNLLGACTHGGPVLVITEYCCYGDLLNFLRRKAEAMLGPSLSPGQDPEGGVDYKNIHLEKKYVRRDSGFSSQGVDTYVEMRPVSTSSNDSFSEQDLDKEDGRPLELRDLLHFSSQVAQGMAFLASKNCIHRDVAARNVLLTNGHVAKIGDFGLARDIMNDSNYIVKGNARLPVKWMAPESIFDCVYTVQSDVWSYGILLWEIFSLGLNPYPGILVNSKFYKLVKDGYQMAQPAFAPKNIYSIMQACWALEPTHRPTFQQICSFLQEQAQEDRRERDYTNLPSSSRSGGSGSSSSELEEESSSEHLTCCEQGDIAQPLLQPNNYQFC

Regarding `Cc1nc(-c2cnc3n(c2=O)CCCN3C)ccc1Oc1ccnc(-c2cnn(C)c2)c1` [Example 1, 9-methyl-3-(6-methyl-5-((2-(1-methyl-1H-pyrazol-4-yl)pyridin-4-yl)oxy)pyridin-2-yl)-6,7,8,9-tetrahydro-4H-pyrimido[1,2-a]pyrimidin-4-one], the half-inhibitory concentration (IC50) in assay [1] (setting [3]) was 101 nM; in assay [1] (setting [4]) it was 95.6 nM; in assay [2], over 2000 nM; at CSF-1R, 73.7 nM.
For the compound `CCN1CCCn2c1ncc(-c1ccc(Oc3ccnc(-c4cnn(C)c4)c3)c(C)n1)c2=O` [Example 4], the IC50 in assay [1] (setting [3]) stood at 38 nM; in assay [1] (setting [4]), 20.2 nM; in assay [2], 436 nM; on CSF-1R it was 90.7 nM.
